According to PubChem BioAssay (NCI):
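The compound was tested at five concentrations on cells cultured in 96-well plates, with a 48-hour exposure period. GI50 = concentration required for 50% inhibition of growth. TGI: concentration producing complete growth inhibition.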

What was measured:
Test in all cases: NCI anticancer screen, dose series, 48 h
[1] = system: OVCAR-5 ovarian
[2] = system: OVCAR-4 ovarian
[3] = system: MOLT-4 leukemia
[4] = system: COLO 205 colon
[5] = system: SNB-19 CNS
[6] = system: SK-MEL-2 melanoma
[7] = system: PC-3 prostate
[8] = system: SN12C renal
[9] = system: CAKI-1 renal
[10] = system: DU-145 prostate
[11] = system: MDA-MB-435
[12] = system: UACC-62 melanoma
[13] = system: SF-295 CNS
[14] = system: SF-268 CNS
[15] = system: SR leukemia
[16] = system: HOP-92 NSCLC
[17] = system: A549 NSCLC
[18] = system: HS 578T breast
[19] = system: UACC-257 melanoma
[20] = system: K-562 leukemia
[21] = system: OVCAR-3 ovarian
[22] = system: HCT-116 colon
[23] = system: A498 renal
[24] = system: KM12 colon
[25] = system: BT-549 breast
[26] = system: RPMI-8226 leukemia
[27] = system: T-47D breast
[28] = system: M14 melanoma
[29] = system: NCI/ADR-RES ovarian
[30] = system: ACHN renal
[31] = system: U251 CNS
[32] = system: MCF7 breast
[33] = system: SW-620 colon
[34] = system: MDA-MB-231 breast
[35] = system: SNB-75 CNS
[36] = system: 786-0 renal
[37] = system: OVCAR-8 ovarian
[38] = system: TK-10 renal
[39] = system: HCC-2998 colon
[40] = system: NCI-H23 lung
[41] = system: LOX IMVI melanoma
[42] = system: UO-31 renal
[43] = system: SK-MEL-28 melanoma
[44] = system: CCRF-CEM leukemia
[45] = system: HCT-15 colon
[46] = system: SF-539 CNS
[47] = system: NCI-H460 lung
[48] = system: HOP-62 NSCLC
[49] = system: HL-60(TB) leukemia
[50] = system: NCI-H226 lung
[51] = system: NCI-H522 lung
[52] = system: MALME-3M melanoma
[53] = system: HT29 colon
[54] = system: RXF 393 renal
[55] = system: IGROV1 ovarian
[56] = system: SK-MEL-5 melanoma
[57] = system: SK-OV-3 ovarian

C[C@H](Cn1ncnn1)Nc1ncc2cc(Oc3ccc(F)cc3F)c(=O)n(C)c2n1
GI50 [1]: > 25 µM
TGI [1]: > 25 µM
GI50 [2]: > 25 µM
TGI [2]: > 25 µM
GI50 [3]: > 25 µM
TGI [3]: > 25 µM
GI50 [4]: > 25 µM
TGI [4]: > 25 µM
GI50 [5]: > 25 µM
TGI [5]: > 25 µM
GI50 [6]: > 25 µM
TGI [6]: > 25 µM
GI50 [7]: > 25 µM
TGI [7]: > 25 µM
GI50 [8]: > 25 µM
TGI [8]: > 25 µM
GI50 [9]: > 25 µM
TGI [9]: > 25 µM
GI50 [10]: > 25 µM
TGI [10]: > 25 µM
GI50 [11]: > 25 µM
TGI [11]: > 25 µM
GI50 [12]: > 25 µM
TGI [12]: > 25 µM
GI50 [13]: > 25 µM
TGI [13]: > 25 µM
GI50 [14]: > 25 µM
TGI [14]: > 25 µM
GI50 [15]: > 25 µM
TGI [15]: > 25 µM
GI50 [16]: 3.96 µM
TGI [16]: > 25 µM
GI50 [17]: > 25 µM
TGI [17]: > 25 µM
GI50 [18]: > 25 µM
TGI [18]: > 25 µM
GI50 [19]: > 25 µM
TGI [19]: > 25 µM
GI50 [20]: > 25 µM
TGI [20]: > 25 µM
GI50 [21]: > 25 µM
TGI [21]: > 25 µM
GI50 [22]: > 25 µM
TGI [22]: > 25 µM
GI50 [23]: > 25 µM
TGI [23]: > 25 µM
GI50 [24]: > 25 µM
TGI [24]: > 25 µM
GI50 [25]: > 25 µM
TGI [25]: > 25 µM
GI50 [26]: > 25 µM
TGI [26]: > 25 µM
GI50 [27]: > 25 µM
TGI [27]: > 25 µM
GI50 [28]: > 25 µM
TGI [28]: > 25 µM
GI50 [29]: > 25 µM
TGI [29]: > 25 µM
GI50 [30]: > 25 µM
TGI [30]: > 25 µM
GI50 [31]: > 25 µM
TGI [31]: > 25 µM
GI50 [32]: > 25 µM
TGI [32]: > 25 µM
GI50 [33]: > 25 µM
TGI [33]: > 25 µM
GI50 [34]: > 25 µM
TGI [34]: > 25 µM
GI50 [35]: > 25 µM
TGI [35]: > 25 µM
GI50 [36]: > 25 µM
TGI [36]: > 25 µM
GI50 [37]: > 25 µM
TGI [37]: > 25 µM
GI50 [38]: > 25 µM
TGI [38]: > 25 µM
GI50 [39]: > 25 µM
TGI [39]: > 25 µM
GI50 [40]: > 25 µM
TGI [40]: > 25 µM
GI50 [41]: > 25 µM
TGI [41]: > 25 µM
GI50 [42]: > 25 µM
TGI [42]: > 25 µM
GI50 [43]: > 25 µM
TGI [43]: > 25 µM
GI50 [44]: > 25 µM
TGI [44]: > 25 µM
GI50 [45]: > 25 µM
TGI [45]: > 25 µM
GI50 [46]: > 25 µM
TGI [46]: > 25 µM
GI50 [47]: > 25 µM
TGI [47]: > 25 µM
GI50 [48]: > 25 µM
TGI [48]: > 25 µM
GI50 [49]: > 25 µM
TGI [49]: > 25 µM
GI50 [50]: > 25 µM
TGI [50]: > 25 µM
GI50 [51]: > 25 µM
TGI [51]: > 25 µM
GI50 [52]: > 25 µM
TGI [52]: > 25 µM
GI50 [53]: > 25 µM
TGI [53]: > 25 µM
GI50 [54]: > 25 µM
TGI [54]: > 25 µM
GI50 [55]: > 25 µM
TGI [55]: > 25 µM
GI50 [56]: > 25 µM
TGI [56]: > 25 µM
GI50 [57]: > 25 µM
TGI [57]: > 25 µM
